Test results reported in patent US12502386B2, “Nitrogen-containing heterocyclic compound and use thereof” (SHANGHAI SHIJIANG BIOTECHNOLOGY CO., LTD, priority 2022, dated 2025).
Like-named read-outs stand apart in the source and are kept apart here.

Experiments:
Format in all cases: cell-based, human
[1] = tested on: sh-DNMT1 NCI-H82 cell; test: CellTiter-Glo cell viability, sh-DNMT1 NCI-H82 cell (DNMT1 knocked down); details: intracellular ATP, read-out: inhibitory effect on sh-DNMT1 NCI-H82 (IC50)
[2] = tested on: ov-NNMT NCI-H82 cell; test: CellTiter-Glo cell viability, ov-NNMT NCI-H82 cell (NNMT overexpressed); details: intracellular ATP, read-out: inhibitory effect on OV-NNMT NCI-H82 (IC50)
[3] = tested on: Con-NCI-H82 cell; test: CellTiter-Glo cell viability, Con-NCI-H82 cell (empty-vector control); details: intracellular ATP, read-out: inhibitory effect on Con-NCI-H82 (IC50)
[4] = Homo sapiens, NCI-H82, NCI-H82 with DNMT1 knocked down by shRNA
[5] = Homo sapiens, NCI-H82, NCI-H82 overexpressing NNMT protein
[6] = Homo sapiens, NCI-H82, NCI-H82 transfected with empty virus vector (control)

SMILES | IC50 [1, 4] [µM] | IC50 [2, 5] [µM] | IC50 [3, 6] [µM] | IC50 ([1]; NCI-H82 with DNMT1 knocked down by shRNA) [µM] | IC50 ([2]; NCI-H82 overexpressing NNMT protein) [µM] | IC50 ([3]; NCI-H82 transfected with empty virus vector (control)) [µM]
CCCCCCC1=C2c3cc4c(cc3CCN2C(C2CCCC2)c2c1ccc(OC)c2OC)OCO4 (stereo not drawn) [AB35489] | 3.56 | 3.78 | 0.82 | – | – | –
COc1ccc2c(c1OCCCCl)C(C1CCC1)N1CCc3cc4c(cc3C1=C2)OCO4 (stereo not drawn) [AB35490] | 8.46 | 7.52 | 2.68 | – | – | –
COc1ccc2c(c1OCCCCl)C(C1CCCCC1)N1CCc3cc4c(cc3C1=C2)OCO4 (stereo not drawn) [AB35491] | 6.54 | 6.86 | 2.22 | – | – | –
CCCC1=C2c3cc4c(cc3CCN2C(C(Cl)(Cl)Cl)c2c1ccc(OC)c2OC)OCO4 (stereo not drawn) [AB35492] | 4.44 | 4.56 | 1.46 | – | – | –
COc1ccc2c(c1OC)C(C)N1CCc3cc4c(cc3C1=C2CCCc1ccccc1)OCCO4 (stereo not drawn) [AB35493] | 2.07 | 1.53 | 0.68 | – | – | –
CCCCOc1c(OC)ccc2c1C(C(Cl)(Cl)Cl)N1CCc3cc4c(cc3C1=C2)OCO4 (stereo not drawn) [AB35494] | 1.96 | 2.12 | 0.43 | – | – | –
COc1ccc2c(c1OCCCCCl)C(C(Cl)(Cl)Cl)N1CCc3cc4c(cc3C1=C2)OCO4 (stereo not drawn) [AB35496] | 8.24 | 6.32 | 2.92 | – | – | –
CCCCCCCCC1=C2c3cc4c(cc3CCN2C(C(Cl)(Cl)Cl)c2c1ccc(OC)c2OC)OCO4 (stereo not drawn) [AB35497] | 5.68 | 3.56 | 1.25 | – | – | –
COc1ccc2c(c1OC)C(C)N1CCc3cc4c(cc3C1=C2CCc1ccccc1)OCO4 (stereo not drawn) [AB35498] | 4.38 | 4.12 | 1.28 | – | – | –
CCOc1c(OC)ccc2c1C(C(Cl)(Cl)Cl)N1CCc3cc4c(cc3C1=C2)OCO4 (stereo not drawn) [AB35499] | 6.52 | 6.96 | 2.16 | – | – | –
COc1ccc2c(c1OC)C(C1CCCC1)N1CCc3cc4c(cc3C1=C2CCCCCCCl)OCO4 (stereo not drawn) [AB35500] | 2.88 | 2.98 | 1.11 | – | – | –
COc1ccc2c(c1OC)C(C(Cl)(Cl)Cl)N1CCc3cc4c(cc3C1=C2CCCCCCBr)OCO4 (stereo not drawn) [AB35501] | 2.56 | 2.12 | 0.87 | – | – | –
CCCCC1=C2c3cc4c(cc3CCN2C(C(Cl)(Cl)Cl)c2c1ccc(OC)c2OC)OCO4 (stereo not drawn) [AB35502] | 7.02 | 7.18 | 2.93 | – | – | –
CCCCCOc1c(OC)ccc2c1C(C(Cl)(Cl)Cl)N1CCc3cc4c(cc3C1=C2)OCO4 (stereo not drawn) [AB35505] | 3.36 | 2.14 | 0.52 | – | – | –
CCCCCCC1=C2c3cc4c(cc3CCN2C(C(Cl)(Cl)Cl)c2c1ccc(OC)c2OC)OCO4 (stereo not drawn) [AB35508] | 2.98 | 3.12 | 0.74 | – | – | –
COc1ccc2c(c1N1CCC(C(F)(F)F)CC1)C(C(Cl)(Cl)Cl)N1CCc3cc4c(cc3C1=C2)OCO4 (stereo not drawn) [AB35514] | 1.98 | 1.36 | 0.37 | – | – | –
COc1ccc2c(c1N1CCN(C)CC1)C(C(Cl)(Cl)Cl)N1CCc3cc4c(cc3C1=C2)OCO4 (stereo not drawn) [AB35518] | 13.3 | 10.1 | 3.52 | – | – | –
COc1ccc2c(c1N1CCN(C)CC1)C(C1CCCC1)N1CCc3cc4c(cc3C1=C2)OCO4 (stereo not drawn) [AB35519] | 4.68 | 5.68 | 2.19 | – | – | –
CCC(CC)COc1c(OC)ccc2c1C(C(Cl)(Cl)Cl)N1CCc3cc4c(cc3C1=C2)OCO4 (stereo not drawn) [AB35521] | 3.14 | 2.32 | 0.61 | – | – | –
CCCCCC1=C2c3cc4c(cc3CCN2C(C2CCCC2)c2c1ccc(OC)c2OC)OCO4 (stereo not drawn) [AB35522] | 5.64 | 3.68 | 1.36 | – | – | –
COc1ccc2c(c1OC)C(C1CCCC1)N1CCc3cc4c(cc3C1=C2CCCCCCBr)OCO4 (stereo not drawn) [AB35523] | 2.86 | 2.99 | 1.02 | – | – | –
COc1ccc2c(c1OC)C(C(Cl)(Cl)Cl)N1CCc3cc4c(cc3C1=C2CCCCCCCl)OCO4 (stereo not drawn) [AB35524] | 4.02 | 4.32 | 1.34 | – | – | –
COc1ccc2c(c1OCc1ccccc1-c1ccccc1)C(C(Cl)(Cl)Cl)N1CCc3cc4c(cc3C1=C2)OCO4 (stereo not drawn) [AB35531] | 3.98 | 3.55 | 0.92 | – | – | –
COc1ccc2c(c1OCCCCc1ccccc1)C(C(Cl)(Cl)Cl)N1CCc3cc4c(cc3C1=C2)OCO4 (stereo not drawn) [AB35535] | 1.32 | 1.21 | 0.22 | – | – | –
COc1ccc2c(c1OCCCBr)CN1CCc3cc4c(cc3C1=C2)OCO4 [AB35544] | 2.04 | 1.02 | 0.28 | – | – | –
COc1ccc2c(c1N1CCC(C)CC1)CN1CCc3cc4c(cc3C1=C2)OCCO4 [AB35545] | 1.56 | 1.33 | 0.14 | – | – | –
COc1ccc2c(c1N1CCC(Cl)CC1)CN1CCc3cc4c(cc3C1=C2)OCCO4 [AB35550] | 4.58 | 4.69 | 2.12 | – | – | –
CCOc1c(OC)ccc2c1CN1CCc3cc4c(cc3C1=C2)OCO4 [AB35594] | 3.98 | 4.12 | 1.26 | – | – | –

SMILES | IC50 [1, 4] [µM] | IC50 [2, 5] [µM] | IC50 [3, 6] [µM] | IC50 ([1]; NCI-H82 with DNMT1 knocked down by shRNA) [µM] | IC50 ([2]; NCI-H82 overexpressing NNMT protein) [µM] | IC50 ([3]; NCI-H82 transfected with empty virus vector (control)) [µM]
COc1ccc2c(c1OCCF)CN1CCc3cc4c(cc3C1=C2)OCO4 [AB35599] | 6.42 | 3.43 | 1.38 | – | – | –
COc1ccc2c(c1OCCBr)CN1CCc3cc4c(cc3C1=C2)OCO4 [AB36403] | 1.46 | 1.54 | 0.38 | – | – | –
[2H]C1c2c(ccc(OC)c2OC)C=C2c3cc4c(cc3CCN21)OCO4 (stereo not drawn) [AB36415] | 3.64 | 2.56 | 0.88 | – | – | –
CCCC1c2c(ccc3c2OCO3)C=C2c3cc4c(cc3CCN21)OCO4 (stereo not drawn) [AB36416] | 4.51 | 3.44 | 1.08 | – | – | –
CCC1=C2c3cc4c(cc3CCN2C(C(Cl)(Cl)Cl)c2c1ccc1c2OCO1)OCO4 (stereo not drawn) [AB36426] | 18.8 | 18.1 | 18.6 | – | – | –
CCCC1=C2c3cc4c(cc3CCN2C(C(Cl)(Cl)Cl)c2c1ccc1c2OCO1)OCO4 (stereo not drawn) [AB36427] | 6.98 | 7.56 | 3.28 | – | – | –
C1=C2c3cc4c(cc3CCN2Cc2cc3c(cc21)OCO3)OCO4 [AB36428] | 2.29 | 1.44 | 0.45 | – | – | –
CCCC1=C2c3cc4c(cc3CCN2C(C2CCCC2)c2c1ccc1c2OCO1)OCO4 (stereo not drawn) [AB36432] | 4.46 | 3.68 | 1.26 | – | – | –
CCCCCC1c2c(ccc3c2OCO3)C=C2c3cc4c(cc3CCN21)OCO4 (stereo not drawn) [AB36433] | 3.01 | 1.95 | 0.54 | – | – | –
[2H]C1([2H])c2c(ccc(OC)c2OC)C=C2c3cc4c(cc3CCN21)OCO4 [AB36434] | 3.68 | 2.56 | 1.02 | – | – | –
CC1=C2c3cc4c(cc3CCN2C(C(Cl)(Cl)Cl)c2c1ccc1c2OCO1)OCO4 (stereo not drawn) [AB36442] | 14.1 | 13.3 | 15 | – | – | –
COc1ccc2c(c1Cl)CN1CCc3cc4c(cc3C1=C2)OCO4 [AB36450] | 8.34 | 5.32 | 2.08 | – | – | –
COc1ccc2c(c1Br)CN1CCc3cc4c(cc3C1=C2)OCO4 [AB36460] | 4.58 | 3.33 | 1.06 | – | – | –
COc1ccc2c(c1OC)CN1CCc3cc4c(cc3C1=C2)OCCO4 [AB36463] | 3.24 | 3.44 | 0.92 | – | – | –
COc1ccc2c(c1OC)C(c1ccccc1)N1CCc3cc4c(cc3C1=C2)OCO4 (stereo not drawn) [AB36467] | 13.1 | 9.32 | 3.92 | – | – | –
COc1ccc2c(c1OC)C(CC(C)=O)N1CCc3cc4c(cc3C1=C2)OCO4 (stereo not drawn) [AB36472] | 4.11 | 4.32 | 4.28 | – | – | –
COc1c(OCCCCl)ccc2c1C(C1CCCC1)N1CCc3cc4c(cc3C1=C2)OCO4 (stereo not drawn) [AB36474] | 6.08 | 4.12 | 1.33 | – | – | –
[2H]C1([2H])Cc2cc3c(cc2C2=Cc4ccc(OC)c(OC)c4CN21)OCO3 [AB36476] | 7.34 | 4.86 | 1.24 | – | – | –
[2H]C1c2c(ccc(OC)c2OC)C=C2c3cc4c(cc3CC([2H])([2H])N21)OCO4 (stereo not drawn) [AB36477] | 8.82 | 5.68 | 1.22 | – | – | –
COc1ccc2c(c1OC)C(c1ccncc1)N1CCc3cc4c(cc3C1=C2)OCO4 (stereo not drawn) [AB36488] | 7.83 | 8.06 | 8.23 | – | – | –
COc1ccc2c(c1N1CCCCCC1)CN1CCc3cc4c(cc3C1=C2)OCO4 [AB36493] | 1.98 | 1.58 | 0.29 | – | – | –
COc1ccc2cc3n(c(=O)c2c1OC)CCc1cc2c(cc1-3)OCO2 [AB36496] | 12.6 | 10.1 | 12.9 | – | – | –
COc1ccc2c(c1OC)C(C1CCCC1)N1CCc3cc4c(cc3C1=C2)OCO4 (stereo not drawn) [AB36497] | – | – | – | 17 | 18.3 | 19.9
[2H]C([2H])([2H])Oc1c(OC)ccc2c1C([2H])(C1CCCC1)N1CCc3cc4c(cc3C1=C2)OCO4 (stereo not drawn) [AB36509] | 2.58 | 1.68 | 0.51 | – | – | –
COc1ccc2c(c1OC)C(=C(Cl)Cl)N1CCc3cc4c(cc3C1=C2)OCO4 [AB36512] | 3.96 | 4.08 | 4.36 | – | – | –
COc1ccc2c(c1OC)C(n1cccc1)N1CCc3cc4c(cc3C1=C2)OCO4 (stereo not drawn) [AB36520] | 2.62 | 2.42 | 2.56 | – | – | –
COc1ccc2c(c1OC)C(C1CCCCC1=O)N1CCc3cc4c(cc3C1=C2)OCO4 (stereo not drawn) [AB36525] | 3.96 | 3.53 | 3.86 | – | – | –
